According to patent US12065416B2, “cGAS antagonist compounds” (IMMUNESENSOR THERAPEUTICS, INC., priority 2016, dated 2024):

Columns and labels:
[1] = system: cGAS activity in THP1 cells; test: Cellular assay: ISRE-Gaussia luciferase reporter THP1 cells transfected with ISD (Interferon Stimulatory DNA); type: cell-based; conditions: Homo sapiens, THP-1; ISRE-Gaussia luciferase reporter THP1 cells transfected with 2 μg/mL ISD, 16 hours; read-out: THP1-ISD (Inhibition of cGAS activity in THP1 cells, IC50)
Method: (§1) A reporter THP1 cell line harboring a gene encoding Gaussia Luciferase under the control of 5 tandem repeats of interferon-stimulated response elements (ISRE) was used to test inhibition of cGAS activity by synthetic compounds in human cells. These cells were plated on 96-well plates at 0.3×10^6/well and incubated with various concentrations of compounds or DMSO for 5 min, followed by transfection of 2 μg/mL of ISD (Interferon Stimulatory DNA, a 45 bp DNA oligo) or mock transfected using lipofectamine 2000 (Life Technology) method, according to manufacturer's instructions. 16 hours later, 15 μL of the media from each well is transferred to a new plate, 50 μL of solution containing 50 mM Hepes-NaOH, 50 mM NaCl, 10 mM EDTA, 1 μM of coeleanterazine was added to each well and luminescence was measured immediately. Fold increase in luminescence compared to mock transfection is plotted against concentrations of each compound, and IC50 is calculated using Graphpad. To evaluate the specificity of a compound, the same procedure was performed except that cells were transfected with 2 μg/mL poly(I:C) or infected with Sendai Virus (SeV) at 50 Unit/mL, which are known to activate the RIG-I-MAVS pathway. A specific inhibitory compound should inhibit interferon induction by DNA but have minimal effect on poly(I:C) or Sendai virus induced interferon reporter gene expression.

[2] = biological target: T1, recombinant cGAS (aa147-522) (Homo sapiens, UniProt Q8N884); test: In vitro assay for inhibition of cGAS activity (ATP consumption, Kinase Glo); type: biochemical; conditions: 37° C. 20 minutes, read-out: Activity (Inhibition of cGAS enzyme activity in vitro, IC50)
T1 construct: recombinant cGAS (aa147-522); His6-SUMO (N, cleaved yes); made in house; host or cells: E. coli BL21/pLys
In short: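 Human cGAS (aa147-522) at 1.5 ng/μL incubated with serially diluted compound at 37° C for 20 min; remaining ATP read by Kinase Glo luminescence. IC50 from percent ATP consumption plotted against log compound concentration.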

RIG-I-MAVS pathway = test: Specificity assay: ISRE reporter THP1 cells infected with Sendai Virus (SeV); type: cell-based; conditions: Homo sapiens, THP-1; ISRE-Gaussia luciferase reporter THP1 cells infected with Sendai Virus (SeV) at 50 Unit/mL
Method: as §1

T1 sequence (Q8N884 147-522): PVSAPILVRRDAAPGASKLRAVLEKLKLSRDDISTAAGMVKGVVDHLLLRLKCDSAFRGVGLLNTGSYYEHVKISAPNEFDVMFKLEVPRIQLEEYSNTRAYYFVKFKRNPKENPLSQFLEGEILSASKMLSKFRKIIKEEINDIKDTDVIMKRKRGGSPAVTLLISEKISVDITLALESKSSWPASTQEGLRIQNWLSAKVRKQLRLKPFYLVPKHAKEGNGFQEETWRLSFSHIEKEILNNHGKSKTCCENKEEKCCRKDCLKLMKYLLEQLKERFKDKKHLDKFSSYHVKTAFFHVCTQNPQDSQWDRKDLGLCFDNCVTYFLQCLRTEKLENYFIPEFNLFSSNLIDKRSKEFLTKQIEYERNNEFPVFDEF

CN1C(=O)S/C(=C\c2cc(OCc3cnc(NCc4ccccn4)nc3)c(O)cc2Br)C1=O [Ex155]
IC50 [1]: 2500 to 10000 nM | IC50 [2]: ≤ 500 nM | IC50 (RIG-I-MAVS pathway): ≥ 10000 nM

CN1C(=O)S/C(=C\c2cc(OCc3cnc(NCc4cccnc4)nc3)c(O)cc2Br)C1=O [Ex156]
IC50 [1]: 2500 to 10000 nM | IC50 [2]: ≤ 500 nM | IC50 (RIG-I-MAVS pathway): ≥ 10000 nM

CN1C(=O)S/C(=C\c2cc(OCc3cnc(NCc4ccncc4)nc3)c(O)cc2Br)C1=O [Ex157]
IC50 [1]: 2500 to 10000 nM | IC50 [2]: ≤ 500 nM | IC50 (RIG-I-MAVS pathway): ≥ 10000 nM

CN1C(=O)S/C(=C\c2cc(OCc3cnc(N4CCNCC4)nc3)c(O)cc2Br)C1=O [Ex165]
IC50 [1]: 2500 to 10000 nM | IC50 [2]: ≤ 500 nM | IC50 (RIG-I-MAVS pathway): ≥ 10000 nM

Cc1nc(N)ncc1COc1cc(/C=C2\SC(=O)N(C)C2=O)c(Br)cc1O [Ex170]
IC50 [1]: ≤ 2500 nM | IC50 [2]: ≤ 500 nM | IC50 (RIG-I-MAVS pathway): ≥ 10000 nM

CN1C(=O)S/C(=C\c2cc(OCc3cnc(N)nc3C3CC3)c(O)cc2Br)C1=O [Ex171]
IC50 [1]: 2500 to 10000 nM | IC50 [2]: ≤ 500 nM | IC50 (RIG-I-MAVS pathway): ≥ 10000 nM

CN1C(=O)S/C(=C\c2cc(OCc3cnc4ccccc4c3)c(O)cc2Br)C1=O [Ex177]
IC50 [1]: 2500 to 10000 nM | IC50 [2]: 500 to 10000 nM | IC50 (RIG-I-MAVS pathway): ≥ 10000 nM

CN1C(=O)S/C(=C\c2cc(OCc3cnc(NN)nc3)c(O)cc2Br)C1=O [Ex184]
IC50 [1]: ≤ 2500 nM | IC50 [2]: ≤ 500 nM | IC50 (RIG-I-MAVS pathway): ≥ 10000 nM

O=C1/C(=C/c2cc(OCc3cncnc3)c(O)cc2Br)Sc2ncccc21 [Ex193]
IC50 [1]: 2500 to 10000 nM | IC50 [2]: ≤ 500 nM | IC50 (RIG-I-MAVS pathway): ≥ 10000 nM

Nc1ncc(COc2cc(/C=C3\Sc4ncccc4C3=O)c(Br)cc2O)cn1 [Ex194]
IC50 [1]: ≤ 2500 nM | IC50 [2]: ≤ 500 nM | IC50 (RIG-I-MAVS pathway): ≥ 10000 nM

CNc1ncc(COc2cc(/C=C3\Sc4ncccc4C3=O)c(Br)cc2O)cn1 [Ex195]
IC50 [1]: 2500 to 10000 nM | IC50 [2]: ≤ 500 nM | IC50 (RIG-I-MAVS pathway): ≥ 10000 nM

O=C1/C(=C/c2cc(OCc3cnc(NCCO)nc3)c(O)cc2Br)Sc2ncccc21 [Ex196]
IC50 [1]: ≤ 2500 nM | IC50 [2]: ≤ 500 nM | IC50 (RIG-I-MAVS pathway): ≥ 10000 nM

COCCNc1ncc(COc2cc(/C=C3\Sc4ncccc4C3=O)c(Br)cc2O)cn1 [Ex197]
IC50 [1]: 2500 to 10000 nM | IC50 [2]: ≤ 500 nM | IC50 (RIG-I-MAVS pathway): ≥ 10000 nM

O=C1/C(=C/c2cc(OCc3cnc(NCc4ccncc4)nc3)c(O)cc2Br)Sc2ncccc21 [Ex200]
IC50 [1]: ≤ 2500 nM | IC50 [2]: ≤ 500 nM | IC50 (RIG-I-MAVS pathway): ≥ 10000 nM

CN1C(=O)S/C(=C\c2cc(OCc3cnc(N)nc3)c(Oc3cnc(N)s3)cc2Br)C1=O [Ex211]
IC50 [1]: 2500 to 10000 nM | IC50 [2]: 500 to 10000 nM | IC50 (RIG-I-MAVS pathway): ≥ 10000 nM

CN1C(=O)S/C(=C\c2cc(OCc3cnc([S+](C)[O-])nc3)c(O)cc2Br)C1=O (stereo not drawn) [Ex213]
IC50 [1]: 2500 to 10000 nM | IC50 [2]: ≤ 500 nM | IC50 (RIG-I-MAVS pathway): ≥ 10000 nM

C[S+]([O-])c1ncc(COc2cc(/C=C3\Sc4ncccc4C3=O)c(Br)cc2O)cn1 (stereo not drawn) [Ex216]
IC50 [1]: ≤ 2500 nM | IC50 [2]: ≤ 500 nM | IC50 (RIG-I-MAVS pathway): 2500 to 10000 nM

CN1C(=O)S/C(=C\c2cc(OCc3cn(-c4ccncc4)nn3)c(O)cc2Br)C1=O [Ex233]
IC50 [1]: 2500 to 10000 nM | IC50 [2]: ≥ 10000 nM | IC50 (RIG-I-MAVS pathway): ≥ 10000 nM

CN1C(=O)S/C(=C\c2cc(Oc3ccc(N)nc3)c(O)cc2Br)C1=O [Ex234]
IC50 [1]: 2500 to 10000 nM | IC50 [2]: ≥ 10000 nM | IC50 (RIG-I-MAVS pathway): ≥ 10000 nM

CNc1ncc(COc2cc(/C=C3\Sc4ncccc4C3=O)c(Br)c(F)c2O)cn1 [ExA1]
IC50 [1]: 2500 to 10000 nM | IC50 [2]: ≤ 500 nM | IC50 (RIG-I-MAVS pathway): ≥ 10000 nM

O=C1/C(=C/c2cc(OCc3cnc(NCc4ccccn4)nc3)c(O)c(F)c2Br)Sc2ncccc21 [ExA2]
IC50 [1]: ≥ 10000 nM | IC50 [2]: ≤ 500 nM | IC50 (RIG-I-MAVS pathway): ≥ 10000 nM

O=C1/C(=C/c2cc(OCc3cnc(NCc4cccnc4)nc3)c(O)c(F)c2Br)Sc2ncccc21 [ExA3]
IC50 [1]: 2500 to 10000 nM | IC50 [2]: ≤ 500 nM | IC50 (RIG-I-MAVS pathway): ≥ 10000 nM

Cc1ncc(COc2cc(/C=C3\Sc4ncccc4C3=O)c(Br)c(F)c2O)cn1 [ExA4]
IC50 [1]: ≤ 2500 nM | IC50 [2]: ≤ 500 nM | IC50 (RIG-I-MAVS pathway): ≥ 10000 nM

CC(Oc1cc(/C=C2\SC(=O)N(C)C2=O)c(Br)c(F)c1O)c1cnc(Cl)nc1 (stereo not drawn) [ExA6]
IC50 [1]: 2500 to 10000 nM | IC50 [2]: ≤ 500 nM | IC50 (RIG-I-MAVS pathway): 2500 to 10000 nM

CC(Oc1cc(/C=C2\SC(=O)N(C)C2=O)c(Br)c(F)c1O)c1cnc(N)nc1C(F)(F)F (stereo not drawn) [ExA7]
IC50 [1]: 2500 to 10000 nM | IC50 [2]: ≤ 500 nM | IC50 (RIG-I-MAVS pathway): ≥ 10000 nM

C[S+]([O-])c1ncc(COc2cc(/C=C3\Sc4ncccc4C3=O)c(Br)c(F)c2O)cn1 (stereo not drawn) [ExA15]
IC50 [1]: 2500 to 10000 nM | IC50 [2]: 500 to 10000 nM | IC50 (RIG-I-MAVS pathway): ≥ 10000 nM

CN1C(=O)S/C(=C\c2cc(O/C=C/c3cnc(N)nc3)c(O)c(F)c2Br)C1=O [ExB2]
IC50 [1]: ≤ 2500 nM | IC50 [2]: ≤ 500 nM | IC50 (RIG-I-MAVS pathway): ≥ 10000 nM

CN1C(=O)S/C(=C\c2cc(OCCc3cnc(N)nc3)c(O)c(F)c2Br)C1=O [ExB3]
IC50 [1]: ≤ 2500 nM | IC50 [2]: ≤ 500 nM | IC50 (RIG-I-MAVS pathway): ≥ 10000 nM

CC(Oc1cc(/C=C2\SC(=O)N(C)C2=O)c(Br)c(F)c1O)C(O)c1cnc(N)nc1 (stereo not drawn) [ExB4]
IC50 [1]: ≥ 10000 nM | IC50 [2]: ≤ 500 nM | IC50 (RIG-I-MAVS pathway): ≥ 10000 nM

O=C1/C(=C/c2cc(CC(F)(F)F)c(O)cc2Br)Sc2ncccc21 [ExB21]
IC50 [1]: 2500 to 10000 nM | IC50 [2]: ≤ 500 nM | IC50 (RIG-I-MAVS pathway): ≥ 10000 nM

[2H]C([2H])(Oc1cc(/C=C2\SC(=O)N(C)C2=O)c(Br)cc1O)c1cnc(N)nc1 [ExB35]
IC50 [1]: ≤ 2500 nM | IC50 [2]: ≤ 500 nM | IC50 (RIG-I-MAVS pathway): ≥ 10000 nM

CN1C(=O)S/C(=C\c2cc3c(-c4cnc(N)nc4)c[nH]c3c(F)c2Br)C1=O [ExB40]
IC50 [1]: 2500 to 10000 nM | IC50 [2]: ≤ 500 nM | IC50 (RIG-I-MAVS pathway): ≥ 10000 nM

CN1C(=O)S/C(=C\c2cc3c(Cc4cnc(N)nc4)c[nH]c3c(F)c2Br)C1=O [ExB43]
IC50 [1]: ≥ 10000 nM | IC50 [2]: ≤ 500 nM | IC50 (RIG-I-MAVS pathway): ≥ 10000 nM

CCC(Oc1cc(/C=C2\SC(=O)N(C)C2=O)c(Br)c(F)c1O)c1cnc(N)nc1 (stereo not drawn) [ExB44]
IC50 [1]: 2500 to 10000 nM | IC50 [2]: ≤ 500 nM | IC50 (RIG-I-MAVS pathway): ≥ 10000 nM
